Experimental data: patent publication US12691183B2, “Methods of making and using nanoparticles for treatment of bacterial biofilm” (Brown University, priority 2022, dated 2026)
Where a name gives a salt, the structure may show the parent alone.

Experiments:
V. vulnificus [1] = assay: MIC microdilution assay against planktonic bacteria; format: cell-based; conditions: Vibrio vulnificus, 16-18 hours, Doxy or loaded Doxy concentration
Experimental: The minimum inhibitory concentrations (MICs) of NPs against V. vulnificus were determined using the microdilution assay as previously reported. See T. Gwisai, N. R. Hollingsworth, S. Cowles, N. Tharmalingam, E. Mylonakis, B. B. Fuchs and A. Shukla, Biomedical Materials, 2017, 12, 045010; D. Alkekhia and A. Shukla, Journal of Biomedical Materials Research Part A, 2019, 107, 1324-1339. Free Doxy and Doxy loaded NPs were diluted 2-fold in LB in 96-well plates to obtain concentrations of Doxy or loaded Doxy ranging from 0.03-4.0 μg/mL. V. vulnificus in LB media in its logarithmic growth phase was added to each well at a final concentration of 1×10^5 colony forming units (CFU)/mL. Positive control (PC) of bacteria cultured in LB only and negative control (NC) of LB without bacteria were included. After 16-18 hours of shaking (100 rpm) at 37° C., OD600 was measured using a plate reader. The normalized bacteria density (%) was calculated as follows: […]

V. vulnificus biofilm [2] = assay: Inhibition of biofilm formation, crystal violet staining; format: cell-based; conditions: inhibits biofilm formation by 80%, 24-hour incubation
Experimental: The investigate the effect of free Doxy and Doxy-loaded NPs on V. vulnificus biofilm formation, V. vulnificus was prepared for biofilm formation. When adding the bacteria in its logarithmic growth phase to 96-well plates, free Doxy or Doxy-loaded NPs were added simultaneously at varying concentrations. Bacteria lacking Doxy treatment were included as a PC and LBS without bacteria was included as a NC. Following a 24-hour incubation in static conditions, the biofilm biomass was quantified using crystal violet staining. Briefly, the supernatant media was gently removed, and biofilms were washed three times with 1×PBS. Next biofilms were stained with 200 μL 0.1% (w/v) crystal violet in 1×PBS for 15 minutes, followed by three 1×PBS washes. The stain was eluted by incubation with 200 μL of 100% ethanol with shaking (100 rpm) for 2 min at RT. The absorbance at 570 nm (OD570) was measured using a plate reader. Normalized biofilm biomass was calculated as follows: [formula]

V. vulnificus biofilm [3] = assay: Eradication of mature biofilm, crystal violet assay; format: cell-based; conditions: reduces initial biomass of 48 h mature biofilm by 90%, 24 h treatment
Experimental: Unless otherwise noted, all biofilm experiments utilized the following procedure for the formation of a 48 h matured biofilm. V. vulnificus inoculated LB medium was incubated for 18 h with shaking (100 rpm) at 37° C. This bacteria suspension was dilute 1:500 (v/v) in LB media supplemented with 2% w/v NaCl (LB S) at pH 5.5. The optical density of the bacteria suspension at 600 nm (OD600) was monitored overtime. Once in its logarithmic growth phase (OD600=0.1, which is ~1.5×10^7 CFU/mL), biofilms were formed by static incubation of bacteria at 37° C. for 48 hours either in chamber slides of multi-well plates. Every 24 hours, the biofilms were gently washed three times with 1×PBS and add fresh LBS was added.
(§1) The effect of treatment with free Doxy, Doxy-GNP, CS-Doxy-GNP, and HA-CS-Doxy-GNP of 48 h aged V. vulnificus biofilms was assessed by examining biofilm morphology and quantifying biomass and cell viability. Morphology assessment via ESEM, LIVE/DEAD viability staining, colony enumeration and crystal violet staining were performed after incubation of the biofilms with the various treatment groups at a Doxy concentration of 50 μg/mL in 1×PBS or with a 1×PBS control for 24 hours at 37° C.
Biofilm biomass was assessed for 48 h mature biofilms formed in 96-well plates. […] Following 24 hours of incubation, the biofilm biomass was quantified using crystal violet staining as described earlier.

V. vulnificus biofilm [4] = assay: Colony counting assay of treated mature biofilm; format: cell-based; conditions: 50 μg/mL Doxy, 24 h
Experimental: as §1, with “C. Colony enumeration was also conducted by first dispersing biofilms formed in 48-well plates by sonication following treatment. Each sample was then serially diluted in LB, and […] of the dilution was plated onto LB agar plates. Agar plates were imaged and CFU were counted following incubation for 24 h at 37° C.” for “C.”

V. vulnificus [5] = assay: Ex vivo pig skin infection model; format: cell-based
Experimental: Frozen porcine skin tissue was thawed and washed with 1×PBS. A biopsy punch (8 mm) was used to create tissue sections from freshly thawed tissue. A 1.5-mm deep well was created in the center of each of these skin samples using a smaller 3-mm biopsy punch. The tissue pieces were sterilized by immersing in 70% (v/v) ethanol for 2 hours and drying for 30 minutes in a CellGard™ Energy Saver class II, type A2 biosafety cabinet (NuAire, Plymouth, MN). The sterile tissue was then placed on soft TSB agar plates containing 0.5% (w/v) agar with 100 μg/mL vancomycin. Note that vancomycin was included as a common antibiotic against gram-positive to prevent contamination by non-V. vulnificus bacteria. The skin was then infected by adding 10 μL of V. vulnificus suspension (OD600=0.1) in the 3 mm diameter well in each sample. The inoculated skin pieces were incubated for 48 hours at 37° C. in a humidified chamber. The tissue samples were transferred to a new agar plate every 24 hours. At 48 hours, 15 μL of Doxy or HA-CS-Doxy-GNP at a Doxy concetration of 10, 50 or 100 μg/mL was added to the infected skin samples and incubated for a further 24 hours. Controls of tissue inoculated with bacteria treated with LBS at pH 5.5 only and tissue without bacteria treated with LBS at pH 5.5 were included as controls. […]

HUVEC = assay: CCK-8 cytotoxicity assay, HUVEC; format: cell-based, human; conditions: 50 μg/mL Doxy, 24 hour
Experimental: (§2) The cytotoxicity of each NP formulation was evaluated for HUVEC and […] using a CCK-8 viability assay. Briefly, HUVEC and NIH 3T3 cells were cultured at a density of ~5000 cells/cm^2 in EGM-2 endothelial cell growth medium and DMEM supplemented with 10% (v/v) FBS and 1% (v/v) penicillin/streptomycin, respectively at 37° C. with 5% CO2. After 24 hours, cells were treated with Doxy, Doxy-GNPs, CS-Doxy-GNP and HA-CS-Doxy-GNP at a Doxy concentration of 50 μg/mL in the respective media. Cells treated with media only and wells containing no cells or NPs were included as PCs and NCs, respectively. Following a 24 hour incubation, the media was removed, cells were rinsed with 1×PBS three times and 10 μL of CCK-8 solutions was added to each well. After incubation for 4 hours at 37° C. with 5% CO2, the absorbance was read at 450 nm (OD450) using a plate reader. Normalized cell viability was calculated using the following equation. [formula]

NIH 3T3 cells = assay: CCK-8 cytotoxicity assay, NIH 3T3; format: cell-based, mouse; conditions: NIH 3T3, 50 μg/mL Doxy, 24 hour
Experimental: as §2

MIC (V. vulnificus [1]): 0.5 µg/mL
SMILES: C[C@H]1c2cccc(O)c2C(=O)C2=C(O)[C@]3(O)C(=O)C(C(N)=O)=C(O)[C@@H](N(C)C)[C@@H]3[C@@H](O)[C@@H]21 [Doxy, doxycycline hydrochloride]
MBIC80 (V. vulnificus biofilm [2]): about 16 μg/mL
MBEC90 (V. vulnificus biofilm [3]): about 50 μg/mL
reduction in CFU compared to no treatment control (V. vulnificus biofilm [4]): 2 log reduction
number of living bacterial cells compared with untreated pig skin (V. vulnificus [5]; 50 μg/mL or 100 μg/mL Doxy, 24 hours): significantly reduced
mean value of CFU/mL relative to untreated samples (100%) (V. vulnificus [5]; 2 days infection, 24 hours treatment, 100 μg/mL Doxy): 16.42%
cell viability (HUVEC): about 60%
cell viability (NIH 3T3 cells): about 70%
